# From US20250268826A1, “IONIZABLE LIPIDOID COMPOSITIONS AND THERAPEUTIC USES THEREOF” (Flagship Pioneering Innovations VII, LLC, priority 2023, published 2025)
# Read-outs that look alike come from different tables or passages of the source.
# How the values were obtained:
# Assay type in all cases: physicochemical
# [1] = Encapsulation efficiency (EE %) by fluorescence based Ribogreen assay
# [2] = LNP size and polydispersity index (PDI) by dynamic light scattering (DLS)
# [3] = LNP Zeta potential measured using a Zetasizer (Malvern); conditions: for Zeta potential (mV): LNP with hEPO mRNA, N:P ratio 6; for Zeta potential: hEPO mRNA, N:P 6
# [4] = Table 11, LNP with hEPO mRNA, Lipid:DSPC:Cholesterol:DMG-PEG2k 50:10:38.5:1.5 mol % (ALC-0315: 46.3:9.4:42.7:1.6), N:P ratio 6, HEPES/sodium chloride/sucrose buffer, stored at −80C
# [5] = Table 11, Lipid:DSPC:Cholesterol:DMG-PEG2k 50:10:38.5:1.5 mol % (ALC-0315: 46.3:9.4:42.7:1.6), HEPES/sodium chloride/sucrose buffer, stored at −80C
# [6] = Table 1, LNP lipid:DSPC:Cholesterol:DMG-PEG2k 50:10:38.5:1.5 mol %, hEPO mRNA, N:P 6
# [7] = Table 1, LNP lipid:DSPC:Cholesterol:DMG-PEG2k 50:10:38.5:1.5 mol %
# [8] = Table 8, LNP 50:10:38.5:1.5 mol %, hEPO mRNA, N:P 6
# [9] = Table 8, LNP Lipid:DSPC:Cholesterol:DMG-PEG2k 50:10:38.5:1.5 mol %, hEPO mRNA, N:P 6
# [10] = Table 8, LNP 50:10:38.5:1.5 mol %
# [11] = Table 9, LNP 50:10:38.5:1.5 mol %, hEPO mRNA, N:P 6
# [12] = Table 10, LNP with hEPO mRNA, Lipid:DSPC:Cholesterol:DMG-PEG2k 50:10:38.5:1.5 mol %, N:P ratio 6, DLS
# [13] = Table 5, LNP 50:10:38.5:1.5 mol %, hEPO mRNA, N:P 6
# [14] = Table 5, LNP Lipid:DSPC:Cholesterol:DMG-PEG2k 50:10:38.5:1.5 mol %, hEPO mRNA, N:P 6
# [15] = Table 5, LNP 50:10:38.5:1.5 mol %
smiles,measurement,setting,value
CCCCCCCCC(CCCCCC)C(=O)OCCN(CCOC(=O)C(CCCCCC)CCCCCCCC)C(=O)C(C)CCN(C)CC.Cl (centres unmarked) [Compound 987f],Encapsulation Efficiency %,[1]; [4],92.3%
same,PDI,[2]; [4],0.072
same,Size (nm),[2]; [4],79.4 nm
same,Zeta potential (mV),[3]; [5],−2.8 mV
CCCCCCCCCCCC(=O)OCCN(CCOC(=O)CCCCCCCCCCC)C(=O)C(N)CCCCN (centres unmarked) [Compound 121],Encapsulation Efficiency %,[1]; [6],93.1%
same,Size,[2]; [6],105.4 nm
same,Zeta potential,[3]; [7],8.346 mV
CCCCCCCCC(CCCCCC)C(=O)OCCN(CCOC(=O)C(CCCCCC)CCCCCCCC)C(=O)CCCN(C)CCC.Cl (centres unmarked) [Compound 938],Encapsulation Efficiency %,[1]; [8],99.9%
same,PDI,[2]; [8],0.248
same,Size,[2]; [9],103.7 nm
same,Zeta potential,[3]; [10],−18.3 mV
CCCCCCCCCCCC(=O)OCCN(CCOC(=O)CCCCCCCCCCC)C(=O)C(N)CO (centres unmarked) [Compound 134],Encapsulation Efficiency %,[1]; [6],90.5%
same,PDI,[2]; [6],0.321
same,Size,[2]; [6],87.1 nm
same,Zeta potential,[3]; [7],6.281 mV
CCCCCCCCC(CCCCCC)C(=O)OCCN(CCOC(=O)C(CCCCCC)CCCCCCCC)C(=O)C(C)CCN1CCOCC1.Cl (centres unmarked) [Compound 987n],Encapsulation Efficiency %,[1]; [4],77.8%
same,PDI,[2]; [4],0.107
same,Size (nm),[2]; [4],65.7 nm
same,Zeta potential (mV),[3]; [5],−3.8 mV
CCCCCCCCCCCC(=O)OCCN(CCOC(=O)CCCCCCCCCCC)C(=O)C(N)Cc1ccccc1 (centres unmarked) [Compound 115],Encapsulation Efficiency %,[1]; [6],89.5%
same,PDI,[2]; [6],0.291
same,Size,[2]; [6],70.8 nm
same,Zeta potential,[3]; [7],−2.403 mV
CCCCCCCCCC(CCCCCCCCC)C(=O)OCCN(CCOC(=O)C(CCCCCCCCC)CCCCCCCCC)C(=O)CN(C)C.Cl [Compound 963],Encapsulation Efficiency %,[1]; [11],99.2%
same,PDI,[2]; [11],0.447
same,Size,"[2]; Table 9, LNP Lipid:DSPC:Cholesterol:DMG-PEG2k 50:10:38.5:1.5 mol %, hEPO mRNA, N:P 6",76.1 nm
same,Zeta potential,"[3]; Table 9, LNP 50:10:38.5:1.5 mol %",−41.21 mV
CCCCCCCCC(CCCCCC)C(=O)OCCN(CCOC(=O)C(CCCCCC)CCCCCCCC)C(=O)CCCN(C)CCC.Cl (centres unmarked) [Compound 939],Encapsulation Efficiency %,[1]; [8],98.5%
same,PDI,[2]; [8],0.172
same,Size,[2]; [9],103.5 nm
same,Zeta potential,[3]; [10],−14.9 mV
CC/C=C\CCCCC(=O)OCCN(CCOC(=O)C(CCCCCC)CCCCCCCC)C(=O)CCN(CC)CC (centres unmarked) [Compound 917c],Encapsulation Efficiency %,"[1]; Table 10, LNP with hEPO mRNA, Lipid:DSPC:Cholesterol:DMG-PEG2k 50:10:38.5:1.5 mol %, N:P ratio 6, Ribogreen assay",84%
same,PDI,[2]; [12],0.122
same,Size (nm),[2]; [12],106.9 nm
same,Zeta potential (mV),"[3]; Table 10, Lipid:DSPC:Cholesterol:DMG-PEG2k 50:10:38.5:1.5 mol %",−4.5 mV
CCCCCC(CCCCC)C(=O)OCCN(CCOC(=O)C(CCCCC)CCCCC)C(=O)C(C)N (centres unmarked) [Compound 608],Encapsulation Efficiency %,[1]; [13],97.7%
same,PDI,[2]; [13],0.13
same,Size,[2]; [14],77.1 nm
same,Zeta potential,[3]; [15],−4.462 mV
CCCCCCCCC(CCCCCC)C(=O)OCCN(CCOC(=O)C(CCCCCC)CCCCCCCC)C(=O)CCCN1CCCCC1.Cl (centres unmarked) [Compound 983],Encapsulation Efficiency %,[1]; [8],97.1%
same,PDI,[2]; [8],0.114
same,Size,[2]; [9],90.4 nm
same,Zeta potential,[3]; [10],−15.9 mV
CCCCCCCCCCC(CCCC)C(=O)OCCN(CCOC(=O)C(CCCC)CCCCCCCCCC)C(=O)C(N)Cc1ccccc1 (centres unmarked) [Compound 619],Encapsulation Efficiency %,[1]; [13],98.1%
same,PDI,[2]; [13],0.183
same,Size,[2]; [14],60.7 nm
same,Zeta potential,[3]; [15],−11.63 mV
CCCCCCCCC(CCCCCC)C(=O)OCCN(CCOC(=O)C(CCCCCC)CCCCCCCC)C(=O)CCNCCC.Cl (centres unmarked) [Compound 908],Encapsulation Efficiency %,[1]; [8],100%
same,PDI,[2]; [8],0.215
same,Size,[2]; [9],69.2 nm
same,Zeta potential,[3]; [10],−8 mV
CCCCCCCCC(CCCCCC)C(=O)OCCN(CCOC(=O)C(CCCCCC)CCCCCCCC)C(=O)C(C)CCNC.Cl (centres unmarked) [Compound 987d],Encapsulation Efficiency %,[1]; [4],99.2%
same,PDI,[2]; [4],0.092
same,Size (nm),[2]; [4],62.9 nm
same,Zeta potential (mV),[3]; [5],−1.5 mV
CCCCCCCCC(CCCCCC)C(=O)OCCN(CCOC(=O)C(CCCCCC)CCCCCCCC)C(=O)C(C)CCN(C)C (centres unmarked) [Compound 987a],Encapsulation Efficiency %,[1],95.7%
same,PDI,[2],0.104
same,Size (nm),[2],73.2 nm
same,Zeta potential (mV),[3]; [5],−3.5 mV
CCCCCCCCCC(CCCCCCCCC)C(=O)OCCN(CCOC(=O)C(CCCCCCCCC)CCCCCCCCC)C(=O)CN [Compound 607],Encapsulation Efficiency %,[1]; [13],99.7%
same,Size,[2]; [14],68.9 nm
same,Zeta potential,[3]; [15],−12.44 mV
